For test [1], the system named is Mycobacterium tuberculosis H37Rv. As to the kind of experiment: Antibacterial activity against Mycobacterium tuberculosis H37Rv expressing GFP incubated for 7 days. Type of test: functional, Mycobacterium tuberculosis variant bovis.
Test [2] shares this test system. The experiment in a line: Antibacterial activity against Mycobacterium tuberculosis H37Rv expressing GFP infected in mouse Raw264.7 cells incubated for 5 days by SYTO 60 staining method. Type of test: functional, Mycobacterium tuberculosis variant bovis.
Test [3] relates to Mycobacterium tuberculosis variant bovis. The experiment in a line: Antibacterial activity against VLDL-treated Mycobacterium bovis BCG assessed as level of intrabacterial lipid inclusions profile relative to control. Type of test: functional.
The mark [4] stands for this setting: Mycobacterium tuberculosis variant bovis, time 5.0 day.

The structures appear in SMILES notation. Converted amounts (≈) assume the structure as drawn.

As usually defined, the MIC50 is an inhibitory concentration at the 50% level, which refers to growth in some studies and to a panel of isolates in others. Low values mean higher susceptibility, high ones lower susceptibility. In the case of `CO[C@H]1/C=C/O[C@@]2(C)Oc3c(C)c(O)c4c(O)c(c(/C=N/N5CCN(C)CC5)c(O)c4c3C2=O)NC(=O)/C(C)=C\C=C\[C@H](C)[C@H](O)[C@@H](C)[C@@H](O)[C@@H](C)[C@H](OC(C)=O)[C@@H]1C` [RIFAMPIN], the MIC50 in test [1] (168 h, time 7 day) amounted to 0.01 µM (≈ 0.00823 µg/mL); in test [2] (120 h, time 5 day) it was 2.9 µM (≈ 2.39 µg/mL).

Consider `NNC(=O)c1ccncc1` [ISONIAZID], for which the MIC50 in test [1] (168 h, time 7 day) came to 1.2 µM (≈ 0.165 µg/mL); in test [2] (120 h, time 5 day) it was 1.2 µM (≈ 0.165 µg/mL).

For `CCCCCCCCCCCCCCCCO[P@]1(=O)OC[C@H]2COC(=O)C2=C(C)O1`, the MIC50 in test [1] (168 h, time 7 day) is 1.7 µM (≈ 0.756 µg/mL); in test [2] (setting [4]), “NE”.

For the compound `CCCCCCCCCCCCCCCCO[P@]1(=O)OC[C@@H]2COC(=O)C2=C(C)O1`, the MIC50 entry in test [2] (setting [4]) is on record as “NE”.

Regarding `CCCCCCCCCC[C@@H]1CC[P@@](=O)(OC)OC(C)=C1C(=O)OC`, the MIC50 in test [2] (120 h, time 5 day) is 4.5 µM (≈ 1.69 µg/mL).

With `CCCCCCOc1nn(-c2ccccc2)c(=O)o1`, the MIC50 in test [1] (168 h, time 7 day) was 44.6 µM (≈ 11.7 µg/mL); in test [2] (setting [4]), “NE”.

In the case of `CCCCCCCCCCCCCCCCOP1(=O)OCCC(C(=O)OC)=C(C)O1` (centres undefined), the MIC50 in test [1] (168 h, time 7 day) was 0.5 µM (≈ 0.223 µg/mL); in test [2] (setting [4]), “NE”.

Turning to `CCCCCCOc1nn(-c2ccc(Oc3ccccc3)cc2)c(=O)o1`, the MIC50 in test [1] (168 h, time 7 day) was more than 50 µM; in test [2] (120 h, time 5 day) it was 9.5 µM (≈ 3.37 µg/mL).

Take `O=c1oc(OCCOCc2ccccc2)nn1-c1ccccc1`: the MIC50 was 30.8 µM (≈ 9.62 µg/mL) in test [1] (168 h, time 7 day) and “NE” in test [2] (setting [4]).

Take `CCCCCCCCCC[C@H]1CC[P@@](=O)(OC)OC(C)=C1C(=O)OC`: the MIC50 is 16.6 µM (≈ 6.22 µg/mL) in test [1] (168 h, time 7 day) and 3.1 µM (≈ 1.16 µg/mL) in test [2] (120 h, time 5 day).

Consider `CCCCCCCCCCCC[C@@H]1CC[P@@](=O)(OC)OC(C)=C1C(=O)OC`, for which the MIC50 in test [1] (168 h, time 7 day) was determined as 40.4 µM (≈ 16.3 µg/mL); in test [2] (120 h, time 5 day), 4 µM (≈ 1.61 µg/mL).

Consider `COc1nn(-c2cccc(Oc3ccccc3)c2)c(=O)o1`, for which the Activity in test [3] stood at 90%.

Take `CC(C)COc1nn(-c2ccccc2)c(=O)o1`: the MIC50 in test [1] (168 h, time 7 day) was more than 50 µM; in test [2] (120 h, time 5 day) it was 17.1 µM (≈ 4.01 µg/mL).

As to `CC(C)COc1nn(-c2ccc(Oc3ccccc3)cc2)c(=O)o1`, the MIC50 in test [1] (168 h, time 7 day) came out at 32 µM (≈ 10.4 µg/mL); in test [2] (120 h, time 5 day) it was 8.5 µM (≈ 2.77 µg/mL).

As to `CCCCC[C@H]1CC[P@@](=O)(OC)OC(C)=C1C(=O)OC`, the MIC50 entry in test [1] (Mycobacterium tuberculosis variant bovis, time 7.0 day) is on record as “NE”.

As for `O=c1oc(OCCOCc2ccccc2)nn1-c1ccc(Oc2ccccc2)cc1`, the MIC50 in test [1] (168 h, time 7 day) was more than 50 µM; in test [2] (120 h, time 5 day), 3.5 µM (≈ 1.42 µg/mL).

In turn, `CCCCCCCCCCCC[C@H]1CC[P@@](=O)(OC)OC(C)=C1C(=O)OC` returned an MIC50 in test [1] (168 h, time 7 day) of more than 100 µM.

Source of the values: ChEMBL document CHEMBL5113371, “Lipolytic enzymes inhibitors: A new way for antibacterial drugs discovery” (Eur J Med Chem, 2021).
